Reference: patent US12694522B2, “Systems and methods of correcting batch effect in biological images” (The University of Hong Kong, priority 2022, dated 2026)

test system: H2170 cells; experiment: Drug treatment response of lung cancer cell line H2170 (IC50 concentration level of Table 1); format: cell-based; details: Homo sapiens, NCI-H2170; LUSC cell line H2170; concentration level annotated IC50* in Table 1; 24 hours treatment; read-out: IC50 (half-maximal inhibitory concentration of drug)
Protocol: Morphological profiling is emerging as a promising technique in drug screening; however, the presence of batch effects poses a significant challenge. In this context, the efficacy of the CytoMAD approach is evaluated using label-free drug response assays conducted on LUSC (H2170) cells treated with docetaxel, afatinib, and gemcitabine at various concentrations across two distinct batches. This comprises 18 distinct drug treatment conditions, encompassing five concentration levels and one negative control. During the CytoMAD training process, only batch information and drug types are provided, withholding specific drug concentration data. This allows for the evaluation of the model's self-supervised capability to capture morphological changes across concentrations.
Comparative analysis of phenotypic distributions across different drug treatments (representing different colored violins) showcases preserved patterns before and after the implementation of CytoMAD, confirming its capacity to retain cellular information. To further verify the cellular phenotypic preservation capacity of CytoMAD model, treatment response experiment is conducted with lung cancer cell line H2170. In this experiment, H2170 are treated with drugs of different mechanism of action (MoA) (i.e. Docetaxel as microtubule stabilizing agent, Afatinib as tyrosine kinase inhibitor in targeted therapy and Gemcitabine as antimetabolite), each with 5 concentration levels and a negative control with dimethyl sulfoxide (DMSO) for 24 hours as listed in Table 1. They are imaged using multi-ATOM for single-cell BF and QPI images on 6 days, forming 2 batches with ~100,000 cells per drug. Basically, this dataset consists of 2 batches of data, with each batch containing 3 different drug treatments and each treatment comprising 6 different concentration conditions.

Row | IC50 | Compound
1 | 19 nM | CN(C)C/C=C/C(=O)Nc1cc2c(Nc3ccc(F)c(Cl)c3)ncnc2cc1O[C@H]1CCOC1 [Afatinib]
2 | 3.76 nM | CC(=O)O[C@@]12CO[C@@H]1C[C@H](O)[C@@]1(C)C(=O)[C@H](O)C3=C(C)[C@@H](OC(=O)[C@H](O)[C@@H](NC(=O)OC(C)(C)C)c4ccccc4)C[C@@](O)([C@@H](OC(=O)c4ccccc4)[C@H]21)C3(C)C [Docetaxel]
3 | 7.51 nM | Nc1ccn([C@@H]2O[C@H](CO)[C@@H](O)C2(F)F)c(=O)n1 [Gemcitabine]
